# Measured values: US7683090B2, “Treating agent for irritable bowel syndrome” (Astellas Pharma Inc., priority 2004, dated 2010)
# Structures can show the parent of a compound that is named as a salt. Where two headings read alike, the source gives them in different places.
# Columns and labels:
# [1] = test system: male and female patients suffering from diarrhea-predominant irritable bowel syndrome (IBS); assay: Clinical study with patients suffering from diarrhea-predominant irritable bowel syndrome (Test Example 1); format: in vivo, human; settings: for final monthly responder rate in the global assessment of relief of overall IBS symptoms: placebo group 26.9%
# Description: Clinical study was carried out under the following condition using male and female patients suffering from diarrhea-predominant irritable bowel syndrome (IBS) as subjects.
# Subjects: Patients suffering from diarrhea-predominant IBS in accordance with the Rome II Diagnosis Criteria (D. A. Drossman, et al., pages 351 to 432, ROME II: The functional Gastrointestinal Disorders, Second Edition, Degnon Associates, McLean, 2000).
# Test drugs and Administration Methods: Placebo and ramosetron hydrochloride were orally administered for 12 weeks at 0.005 mg or 0.01 mg once daily.
# Test Periods: Observation period for one week and treating period for 12 weeks
# After transition to the treating period, the starting date for administration of the test drug was defined as the first day. Every week, global assessment of relief of overall IBS symptoms was evaluated taking all symptoms by IBS of the subjects into consideration, comparing with their state in the observation period, and this evaluation was recorded in a patient diary. Incidentally, scores for the global assessment of relief of overall IBS symptoms were as follows.
# The subjects where the score was 0 or 1 for two weeks or more during the four weeks were made monthly responders and the monthly responder rate per month was calculated separately for each group of 0.005 mg and 0.01 mg of placebo and ramosetron hydrochloride.
# After transition to the treating period, the starting date for administration of the test drug was defined as the first day. Every week, global assessment of relief of abdominal discomfort/pain by the test drug was evaluated with the state in the observation period and was recorded in a patient diary. Incidentally, scores for the global assessment of relief of abdominal discomfort/pain were as follows.
# After transition to the treating period, the starting date for administration of the test drug was defined as the first day. Every week, global assessment of improvement of abnormal bowel habits was evaluated comparing with the state in the observation period, and was recorded in a patient diary. Incidentally, scores for the global assessment of improvement of abnormal bowel habits were as follows.
# With regard to (1) to (3) for the subsidiary evaluation items, they were also subjected to calculations of monthly responder rate the same as those for the main evaluation items.
# [2] = test system: patients suffering from irritable bowel syndrome; assay: Former clinical studies, ramosetron hydrochloride administered twice daily to patients suffering from irritable bowel syndrome; format: in vivo, human
# Description: The present inventors have carried out intensive investigations for the purpose of creation of novel treating agents for irritable bowel syndrome including non-constipated irritable bowel syndrome such as diarrhea-predominant irritable bowel syndrome and alternating constipation/diarrhea irritable bowel syndrome for which no sufficiently effective treating agent has been available.
# [3] = test system: patients suffering from non-constipated irritable bowel syndrome; settings: 1 to 8 mg twice daily, cited from earlier work
# [4] = 0.005 mg and 0.01 mg once daily, 12 weeks
smiles,measurement,setting,value
"Cn1cc(C(=O)[C@@H]2CCc3[nH]cnc3C2)c2ccccc21 [ramosetron hydrochloride, (−)-(R)-5-[(1-methyl-1H-indol-3-yl)carbonyl]-4,5,6,7-tetrahydro-1H-benzimidazole]",difference in the responder rates between placebo group and ramosetron group: male versus female patients,[1]; 0.005 mg and 0.01 mg once daily,no difference was noted between male and female patients
same,"final monthly responder rate in the global assessment of relief of abdominal discomfort/pain, better than the placebo group",[1]; [4],more than 10%
same,"final monthly responder rate in the global assessment of relief of abnormal bowel habits, better than the placebo group",[1]; [4],more than 10%
same,therapeutic effect in patients suffering from diarrhea-predominant irritable bowel syndrome (conclusion),"[1]; 0.005 mg and 0.01 mg, administration once daily",effective for both males and females
same,final monthly responder rate in the global assessment of relief of overall IBS symptoms,"[1]; 0.005 mg orally once daily, 12 weeks, p 0.0273 to placebo",42.6%
same,final monthly responder rate in the global assessment of relief of overall IBS symptoms,"[1]; 0.01 mg orally once daily, 12 weeks, p 0.0264 to placebo",43.0%
same,monthly responder rate (overall IBS symptoms) in excess of the responder rate in the placebo group,"[1]; groups of 0.005 mg and 0.01 mg once daily, 12 weeks",more than 15%
same,therapeutic effect as compared with placebo,[2],significant therapeutic effect as compared with placebo was unable to be confirmed
Cc1[nH]cnc1CN1CCc2c(c3ccccc3n2C)C1=O [alosetron],"relief of pain and discomfort, stool consistency, bowel movement frequency and proportion of days with urgency, compared with placebo",[3]; female patients,significant improvement was noted in female patients
same,"relief of pain and discomfort, stool consistency, bowel movement frequency and proportion of days with urgency, compared with placebo",[3]; male patients,no significant improvement was noted as compared with placebo except stool consistency
